The subject of data set [1] is M. abscessus Bamboo. The data set is described as follows: Bactericidal assay (CFU, fold kill). It counts as cell-based, Mycobacterium abscessus. The note with it: 10^7 CFU/mL exposed to MIC90 for 3 days, CFU vs starting inoculum.
Data set [2] concerns M. abscessus Bamboo. The data set can be described thus: Dose-response growth inhibition (broth microdilution). The following applies: Mycobacteroides abscessus, 72 h. It counts as cell-based, Mycobacterium abscessus. (Dilution methods test growth across graded concentrations, often in twofold steps.)
The conditions of data set [3]: rat, cited from earlier work.
The next data set relates to M. tuberculosis H37Rv. The data set is described as follows: Dose-response growth inhibition (broth microdilution). It counts as cell-based. The following applies: Mycobacterium tuberculosis, 168 h.
Data set [4] relates to M. avium 11. The data set is described as above. Format: cell-based, Mycobacterium avium.
The test system of data set [5] is M. avium 11. The data set can be described thus: Bactericidal assay (CFU, fold kill). Format: cell-based, Mycobacterium avium. The note with it: for Fold kill at MIC90: 10^7 CFU/mL exposed to MIC90 for 4 days, CFU vs starting inoculum.
The next data set has as its system M. tuberculosis. More on the design: method as in http://www.pathogenbox.org/. The note with it: as reported by MMV, ref http://www.pathogenbox.org/; cited from earlier work.
For data set [6], the system named is M. avium 11. The data set is described as follows: Single point growth inhibition screening assay. It counts as cell-based, Mycobacterium avium. The following applies: M. avium 11, 20 μM, 4 days.
Where [7] appears, read: M. abscessus Bamboo, 3 days, read-out: MIC50.
Where [8] appears, read: M. abscessus Bamboo, 3 days, read-out: MIC90.
Setting [9] is: M. tuberculosis H37Rv, 7 days, concentration that inhibits 50% of growth, read-out: MIC50.
Where [10] appears, read: M. tuberculosis H37Rv, 7 days, concentration that inhibits 90% of growth, read-out: MIC90.
Where [11] appears, read: Mycobacterium avium, 96 h, M. avium 11, 4 days, read-out: MIC50.
Where [12] appears, read: Mycobacterium avium, 96 h, M. avium 11, 4 days, read-out: MIC90.
The mark [13] stands for this setting: IV 1 mg/kg, mean n = 2, ref http://www.pathogenbox.org/.
Where [14] appears, read: PO 5 mg/kg, mean n = 2, ref http://www.pathogenbox.org/.

In brackets after ≈: the same amount, converted by molar mass. Like-named read-outs stand apart in the source and are kept apart here. Where only a bound is given, the exact number is not on record here.

On to `CC(=O)NCC1CN(c2ccc(-c3ccc(CO)cc3)c(F)c2)C(=O)O1` (stereo not shown) [MMV688508], for which the “Fold kill at MIC90” value is “NK (NK, “no kill,” i.e., CFU reduction < 10-fold at MIC90)” in the data set with M. abscessus Bamboo [1] and “NK (NK, “no kill,” i.e., CFU reduction < 10-fold at MIC90)” with M. avium 11 [5]. Moreover, the MIC50 in the data set with M. abscessus Bamboo [2] (setting [7]) was 2.2 µM (≈ 0.788 µg/mL); in the data set on M. tuberculosis H37Rv (setting [9]) it was less than 0.2 µM; in the data set with M. avium 11 [4] (setting [11]), 0.6 µM (≈ 0.215 µg/mL). Besides, the MIC90 in the data set on M. abscessus Bamboo [2] (setting [8]) was found to be 12 µM (≈ 4.3 µg/mL); with M. tuberculosis H37Rv (setting [10]) it was 0.3 µM (≈ 0.108 µg/mL); with M. avium 11 [4] (setting [12]), 8 µM (≈ 2.87 µg/mL). Besides, the AUCinf in data set [3] (in vivo, iv, 1 mg/kg) is recorded as 156 ng·h/mL. Moreover, the AUClast in data set [3] (in vivo, iv, 1 mg/kg) is recorded as 156 ng·h/mL; in data set [3] (in vivo, po, 5 mg/kg), 1.45 ng·h/mL. In addition, in data set [3] (in vivo, iv, 1 mg/kg), the C0 is 1310 ng/mL. Further, the Cl in data set [3] (in vivo, iv, 1 mg/kg) is listed as 280 mL/min/kg. Besides, in data set [3] (in vivo, po, 5 mg/kg), the tmax was 0.25 h. Further, in data set [3] (in vivo), the “%F” value is reported as less than 1%. In addition, in the data set on M. tuberculosis, the “Reported MIC” value is 0.4 µM.
Take `CC(=O)NC[C@H]1CN(c2ccc(N3CCSCC3)c(F)c2)C(=O)O1` [MMV688756, sutezolid, reference compound]: the “Fold kill at MIC90” value in the data set with M. abscessus Bamboo [1] is on record as “NK (NK, “no kill,” i.e., CFU reduction < 10-fold at MIC90)”; in the data set with M. avium 11 [5], “NK (NK, “no kill,” i.e., CFU reduction < 10-fold at MIC90)”. Besides, the MIC50 with M. abscessus Bamboo [2] (setting [7]) is 4.2 µM (≈ 1.48 µg/mL); with M. tuberculosis H37Rv (setting [9]), less than 0.2 µM; in the data set with M. avium 11 [4] (setting [11]), 0.4 µM (≈ 0.141 µg/mL). For the same compound, the values for the MIC90 in the data set with M. abscessus Bamboo [2] (setting [8]), in the data set on M. tuberculosis H37Rv (setting [10]) and in the data set on M. avium 11 [4] (setting [12]) were 25 µM (≈ 8.84 µg/mL), 1.2 µM (≈ 0.424 µg/mL) and 4 µM (≈ 1.41 µg/mL), respectively. Also, in the data set on M. tuberculosis, the “Reported MIC” value is 1.2 µM.
In the case of `COc1ccc2nccc(NC(=O)C3CCN(CCc4ccc(Cl)cc4)CC3)c2n1` [MMV688844], the “Fold kill at MIC90” value in the data set with M. abscessus Bamboo [1] is 100 fold. Also, the MIC50 in the data set with M. abscessus Bamboo [2] (setting [7]) stood at 4.5 µM (≈ 1.91 µg/mL); in the data set on M. tuberculosis H37Rv (setting [9]), 0.2 µM (≈ 0.085 µg/mL); with M. avium 11 [4] (setting [11]), 2 µM (≈ 0.85 µg/mL). Moreover, the MIC90 is 11 µM (≈ 4.67 µg/mL) with M. abscessus Bamboo [2] (setting [8]); 2.8 µM (≈ 1.19 µg/mL) in the data set on M. tuberculosis H37Rv (setting [10]); 6 µM (≈ 2.55 µg/mL) in the data set with M. avium 11 [4] (Mycobacterium avium, 11, read-out: Concentration at which 80% growth inhibition was achieved (printed in MIC90 column)); more than 50 µM in the data set with M. avium 11 [4] (setting [12]). Moreover, in data set [3] (in vivo, iv, 1 mg/kg), the AUCinf is on record as 167 ng·h/mL. Moreover, the AUClast in data set [3] (in vivo, iv, 1 mg/kg) is recorded as 164 ng·h/mL. Moreover, in data set [3] (in vivo, iv, 1 mg/kg), the C0 is 116 ng/mL. Moreover, in data set [3] (in vivo, iv, 1 mg/kg), the Cl is 102 mL/min/kg. The “Fold kill (Fold kill at MIC90)” value in the data set with M. avium 11 [5] (at 6 μM (80% growth inhibition), MIC90 not reached) is “NK^# (NK, “no kill,” i.e., CFU reduction < 10-fold at MIC90)”. Besides, in the data set on M. tuberculosis, the “Reported MIC” value is 0.4 µM.
Turning to `O=C(N[C@H](Cc1ccccc1)C(=O)Nc1ccccc1N1CCOCC1)c1cccs1` [MMV688845], the “Fold kill at MIC90” value in the data set with M. abscessus Bamboo [1] was 10 fold; with M. avium 11 [5] it was “NK (NK, “no kill,” i.e., CFU reduction < 10-fold at MIC90)”. Further, the MIC50 is 1.5 µM (≈ 0.653 µg/mL) with M. abscessus Bamboo [2] (setting [7]), less than 0.2 µM in the data set with M. tuberculosis H37Rv (setting [9]) and 0.6 µM (≈ 0.261 µg/mL) in the data set on M. avium 11 [4] (setting [11]). The MIC90 amounted to 7 µM (≈ 3.05 µg/mL) with M. abscessus Bamboo [2] (setting [8]), 1.7 µM (≈ 0.74 µg/mL) in the data set with M. tuberculosis H37Rv (setting [10]) and 3 µM (≈ 1.31 µg/mL) in the data set on M. avium 11 [4] (setting [12]). Also, the AUCinf in data set [3] (in vivo, iv, 1 mg/kg) was 174 ng·h/mL. Besides, the AUClast in data set [3] (in vivo, iv, 1 mg/kg) is reported as 171 ng·h/mL; in data set [3] (in vivo, po, 5 mg/kg), 3.95 ng·h/mL. Besides, in data set [3] (in vivo, iv, 1 mg/kg), the C0 is 716 ng/mL. Further, the Cl in data set [3] (in vivo, iv, 1 mg/kg) is on record as 96.3 mL/min/kg. Further, the tmax in data set [3] (in vivo, po, 5 mg/kg) was 0.375 h. For the same compound, the “%F” value in data set [3] (in vivo) was less than 1%. The “Reported MIC” value in the data set on M. tuberculosis was 1.2 µM.
Take `Cc1ccccc1CN1CCC(O)(c2ccc(Cl)c(C(F)(F)F)c2)CC1` [MMV688846]: the “Fold kill at MIC90” value in the data set with M. abscessus Bamboo [1] was determined as 10 fold. In the data set with M. abscessus Bamboo [2], this compound showed an MIC50 of 0.7 µM (≈ 0.269 µg/mL) and an MIC90 of 1.5 µM (≈ 0.576 µg/mL). In data set [3] (setting [13]), the AUCinf is 464 ng·h/mL, the AUClast is 423 ng·h/mL, the C0 is 563 ng/mL and the Cl is 36.8 mL/min/kg. Further, in data set [3] (setting [13]), the distribution volume (Vss) is given as 14.4 L/kg and the t1/2 is listed as 9.78 h. The “%F” value in data set [3] (PO 5 mg/kg vs IV 1 mg/kg, ref http://www.pathogenbox.org/) is less than 1%. Besides, the maximum concentration (Cmax) in data set [3] (PO 5 mg/kg, mean n = 2, BLQ = < 1 ng/mL, ref http://www.pathogenbox.org/) is on record as 3.19 ng/mL. For the same compound, in data set [3] (setting [14]), the AUCinf is 27.5 ng·h/mL, the AUClast is reported as 18.1 ng·h/mL, the t1/2 is reported as 4.6 h and the tmax is listed as 1.5 h. Further, in the data set with M. tuberculosis H37Rv (H37RV), the MIC50 came out at 0.2 µM (≈ 0.0768 µg/mL) and the MIC90 was 0.6 µM (≈ 0.23 µg/mL). Further, the MIC50 in the data set with M. avium 11 [4] (Mycobacterium avium, 11, 96 h) was 20 µM (≈ 7.68 µg/mL). Besides, the IC90 in the data set with M. avium 11 [4] (Mycobacterium avium, 11, 96 h, read-out: MIC90) was more than 50 µM. Besides, the “Reported MIC” value in the data set on M. tuberculosis was 0.4 µM.
Take `CC(C)/N=c1\cc2n(-c3ccc(Cl)cc3)c3ccccc3nc-2cc1Nc1ccc(Cl)cc1` [clofazimine]: the “Activity in primary screen (hit = equal or more than 80% growth inhibition)” value with M. avium 11 [6] is “M. avium-specific hits”.

In general, MIC50 refers to an inhibitory concentration at the 50% level, which refers to growth in some studies and to a panel of isolates in others. As usually defined, the Vss is the apparent volume that relates the amount in the body to the concentration in plasma or blood. As usually defined, the Cmax is the highest concentration seen after dosing.

The values above are taken from publication PMC5559473, “Screening of TB Actives for Activity against Nontuberculous Mycobacteria Delivers High Hit Rates” (Frontiers in Microbiology, 2017).
